Measured values as given in ChEMBL document CHEMBL6109078, “Pyrylium derivatives as outer membrane permeabilizers against MDR gram-negative bacteria via multi-target mode of action” (Eur J Med Chem, 2025).
The source made the active and inactive calls. The calls are words filed in the database; no cut-off is given here.

What was measured:
Acinetobacter baumannii [1] = assay: Synergistic antibacterial activity against multi-drug resistant Acinetobacter baumannii clinical isolate 1 assessed as fractional inhibitory concentration index in presence of polymyxin B by checkerboard assay; format: functional
Acinetobacter baumannii [2] = assay: Synergistic antibacterial activity against multi-drug resistant Acinetobacter baumannii clinical isolate 1 assessed as fractional inhibitory concentration index in presence of amikacin by checkerboard assay; format: functional
Escherichia coli [3] = assay: Synergistic antibacterial activity against Escherichia coli CG-4 expressing MCR-1 and NDM-1 assessed as fractional inhibitory concentration index in presence of polymyxin B by checkerboard assay; format: functional
Acinetobacter baumannii [4] = assay: Synergistic antibacterial activity against multi-drug resistant Acinetobacter baumannii clinical isolate 5 assessed as inhibition of bacterial growth by measuring polymyxin B MIC by checkerboard assay; format: functional
Escherichia coli [5] = assay: Synergistic antibacterial activity against Escherichia coli CG-4 expressing MCR-1 and NDM-1 assessed as inhibition of bacterial growth by measuring polymyxin B MIC by checkerboard assay; format: functional
Escherichia coli [6] = assay: Antibacterial activity against multi-drug resistant Escherichia coli clinical isolate 1 assessed as inhibition of bacterial growth by CLSI protocol based method; format: functional
Acinetobacter baumannii [7] = assay: Antibacterial activity against multi-drug resistant Acinetobacter baumannii clinical isolate 51 assessed as inhibition of bacterial growth by CLSI protocol based method; format: functional
Acinetobacter baumannii [8] = assay: Antibacterial activity against multi-drug resistant Acinetobacter baumannii clinical isolate 14 assessed as inhibition of bacterial growth by CLSI protocol based method; format: functional
Escherichia coli [9] = assay: Synergistic antibacterial activity against Escherichia coli ATCC 35218 assessed as inhibition of bacterial growth in presence of polymyxin B by checkerboard assay; format: functional
Pseudomonas aeruginosa [10] = assay: Synergistic antibacterial activity against Pseudomonas aeruginosa assessed as inhibition of bacterial growth in presence of polymyxin B by checkerboard assay; format: functional, organism-based
Escherichia coli [11] = assay: Synergistic antibacterial activity against Escherichia coli ATCC 35218 assessed as fractional inhibitory concentration index in presence of amikacin by checkerboard assay; format: functional
Escherichia coli [12] = assay: Synergistic antibacterial activity against Escherichia coli ATCC 25922 assessed as inhibition of bacterial growth in presence of polymyxin B by checkerboard assay; format: functional
Acinetobacter baumannii [13] = assay: Synergistic antibacterial activity against Acinetobacter baumannii ATCC 19606 assessed as inhibition of bacterial growth by measuring polymyxin B MIC by checkerboard assay; format: functional
Pseudomonas aeruginosa [14] = assay: Antibacterial activity Pseudomonas aeruginosa PAO1 assessed as inhibition of bacterial growth by CLSI protocol based method; format: functional
Escherichia coli [15] = assay: Synergistic antibacterial activity against Escherichia coli ATCC 25922 assessed as fractional inhibitory concentration index in presence of gentamycin by checkerboard assay; format: functional
Acinetobacter baumannii [16] = assay: Synergistic antibacterial activity against multi-drug resistant Acinetobacter baumannii clinical isolate 43 assessed as inhibition of bacterial growth by measuring polymyxin B MIC by checkerboard assay; format: functional
Acinetobacter baumannii [17] = assay: Antibacterial activity against Acinetobacter baumannii ATCC 19606 assessed as inhibition of bacterial growth by measuring decrease in bacterial count at 6.25 to 50 microg/ml measured after 12 hrs by time-kill kinetics analysis; format: functional; settings: dose 6.25-50 µg/ml
Escherichia coli [18] = assay: Synergistic antibacterial activity against multi-drug resistant Escherichia coli clinical isolate 1 assessed as fractional inhibitory concentration index in presence of gentamycin by checkerboard assay; format: functional
Escherichia coli [19] = assay: Synergistic antibacterial activity against Escherichia coli CG-4 expressing MCR-1 and NDM-1 assessed as fractional inhibitory concentration index in presence of […] by checkerboard assay; format: functional
Escherichia coli [20] = assay: Synergistic antibacterial activity against multi-drug resistant Escherichia coli clinical isolate 1 assessed as fractional inhibitory concentration index in presence of amikacin by checkerboard assay; format: functional
Escherichia coli [21] = assay: Antibacterial activity against Escherichia coli ATCC 25922 assessed as inhibition of bacterial growth by CLSI protocol based method; format: functional
Acinetobacter baumannii [22] = assay: Synergistic antibacterial activity against Acinetobacter baumannii ATCC 19606 assessed as fractional inhibitory concentration index in presence of amikacin by checkerboard assay; format: functional
Acinetobacter baumannii [23] = assay: Antibacterial activity against multi-drug resistant Acinetobacter baumannii clinical isolate 1 assessed as inhibition of bacterial growth by CLSI protocol based method; format: functional
Acinetobacter baumannii [24] = assay: Synergistic antibacterial activity against multi-drug resistant Acinetobacter baumannii clinical isolate 43 assessed as inhibition of bacterial growth in presence of polymyxin B by checkerboard assay; format: functional
Pseudomonas aeruginosa [25] = assay: Synergistic antibacterial activity against Pseudomonas aeruginosa assessed as inhibition of bacterial growth in presence of aminoglycoside by checkerboard assay; format: functional, organism-based
Acinetobacter baumannii [26] = assay: Antibacterial activity against multi-drug resistant Acinetobacter baumannii clinical isolate 5 assessed as inhibition of bacterial growth by CLSI protocol based method; format: functional
Pseudomonas aeruginosa [27] = assay: Antibacterial activity Pseudomonas aeruginosa ATCC 27853 assessed as inhibition of bacterial growth by CLSI protocol based method; format: functional
Klebsiella pneumoniae [28] = assay: Antibacterial activity against Klebsiella pneumoniae ATCC 700603 assessed as inhibition of bacterial growth by CLSI protocol based method; format: functional
Acinetobacter baumannii [29] = assay: Synergistic antibacterial activity against multi-drug resistant Acinetobacter baumannii clinical isolate 5 assessed as fractional inhibitory concentration index in presence of gentamycin by checkerboard assay; format: functional
Acinetobacter baumannii [30] = assay: Antibacterial activity against multi-drug resistant Acinetobacter baumannii clinical isolate 4 assessed as inhibition of bacterial growth by CLSI protocol based method; format: functional
Acinetobacter baumannii [31] = assay: Synergistic antibacterial activity against multi-drug resistant Acinetobacter baumannii clinical isolate 14 assessed as fractional inhibitory concentration index in presence of gentamycin by checkerboard assay; format: functional
Acinetobacter baumannii [32] = assay: Synergistic antibacterial activity against multi-drug resistant Acinetobacter baumannii clinical isolate 14 assessed as inhibition of bacterial growth in presence of polymyxin B by checkerboard assay; format: functional
Acinetobacter baumannii [33] = assay: Synergistic antibacterial activity against multi-drug resistant Acinetobacter baumannii clinical isolate 43 assessed as fractional inhibitory concentration index in presence of gentamycin by checkerboard assay; format: functional
Acinetobacter baumannii [34] = assay: Synergistic antibacterial activity against multi-drug resistant Acinetobacter baumannii clinical isolate 1 assessed as fractional inhibitory concentration index in presence of gentamycin by checkerboard assay; format: functional
Acinetobacter baumannii [35] = assay: Synergistic antibacterial activity against multi-drug resistant Acinetobacter baumannii clinical isolate 43 assessed as fractional inhibitory concentration index in presence of amikacin by checkerboard assay; format: functional
Acinetobacter baumannii [36] = assay: Synergistic antibacterial activity against Acinetobacter baumannii ATCC 19606 assessed as fractional inhibitory concentration index in presence of polymyxin B by checkerboard assay; format: functional
Escherichia coli [37] = assay: Antibacterial activity against Escherichia coli CG-4 expressing MCR-1 and NDM-1 assessed as inhibition of bacterial growth by CLSI protocol based method; format: functional
Escherichia coli [38] = assay: Synergistic antibacterial activity against Escherichia coli CG-4 expressing MCR-1 and NDM-1 assessed as inhibition of bacterial growth in presence of polymyxin B by checkerboard assay; format: functional
Klebsiella pneumoniae [39] = assay: Synergistic antibacterial activity against Klebsiella pneumoniae assessed as inhibition of bacterial growth in presence of aminoglycoside by checkerboard assay; format: functional, organism-based
Acinetobacter baumannii [40] = assay: Synergistic antibacterial activity against Acinetobacter baumannii ATCC 19606 assessed as inhibition of bacterial growth in presence of polymyxin B by checkerboard assay; format: functional
Acinetobacter baumannii [41] = assay: Synergistic antibacterial activity against multi-drug resistant Acinetobacter baumannii clinical isolate 5 assessed as fractional inhibitory concentration index in presence of polymyxin B by checkerboard assay; format: functional
Escherichia coli [42] = assay: Synergistic antibacterial activity against Escherichia coli ATCC 35218 assessed as inhibition of bacterial growth by measuring polymyxin B MIC by checkerboard assay; format: functional; settings: Escherichia coli, ATCC 35218; read-out: MIC

SMILES: CCN(CC)c1ccc(/C=C/c2cc(C(C)(C)C)[o+]c(C(C)(C)C)c2)cc1.O=S(=O)([O-])C(F)(F)F
- fractional inhibitory concentration index (FICI) (Acinetobacter baumannii [1]): <0.064
- fractional inhibitory concentration index (FICI) (Acinetobacter baumannii [2]): 0.125
- fractional inhibitory concentration index (FICI) (Escherichia coli [3]): 0.375
- MIC (Acinetobacter baumannii [4]): 0.003 µg/mL
- MIC (Escherichia coli [5]): 0.78 µg/mL
- MIC (Escherichia coli [6]): ≥ 100 µg/mL
- MIC (Acinetobacter baumannii [7]): 12.5 µg/mL
- MIC (Acinetobacter baumannii [8]): 12.5 µg/mL
- MIC (Escherichia coli [9]): 1.56 µg/mL
- Activity (Pseudomonas aeruginosa [10]): inactive
- fractional inhibitory concentration index (FICI) (Escherichia coli [11]): 0.125
- MIC (Escherichia coli [12]): 1.56 µg/mL
- MIC (Acinetobacter baumannii [13]): 0.006 µg/mL
- MIC (Pseudomonas aeruginosa [14]): > 100 µg/mL
- fractional inhibitory concentration index (FICI) (Escherichia coli [15]): 0.125
- MIC (Acinetobacter baumannii [16]): 1 10^-4 ug/ml
- Activity (Acinetobacter baumannii [17]): <6 log10CFU/ml
- fractional inhibitory concentration index (FICI) (Escherichia coli [18]): 0.125
- fractional inhibitory concentration index (FICI) (Escherichia coli [19]): 0.125
- fractional inhibitory concentration index (FICI) (Escherichia coli [20]): 0.125
- MIC (Escherichia coli [21]): 6.25 µg/mL
- fractional inhibitory concentration index (FICI) (Acinetobacter baumannii [22]): 0.125
- MIC (Acinetobacter baumannii [23]): 25 µg/mL
- MIC (Acinetobacter baumannii [24]): 6.25 µg/mL
- Activity (Pseudomonas aeruginosa [25]): inactive
- MIC (Acinetobacter baumannii [26]): 12.5 µg/mL
- MIC (Pseudomonas aeruginosa [27]): > 100 µg/mL
- MIC (Klebsiella pneumoniae [28]): > 100 µg/mL
- fractional inhibitory concentration index (FICI) (Acinetobacter baumannii [29]): 0.125
- MIC (Acinetobacter baumannii [30]): 12.5 µg/mL
- fractional inhibitory concentration index (FICI) (Acinetobacter baumannii [31]): 0.125
- MIC (Acinetobacter baumannii [32]): 1.56 µg/mL
- fractional inhibitory concentration index (FICI) (Acinetobacter baumannii [33]): 0.125
- fractional inhibitory concentration index (FICI) (Acinetobacter baumannii [34]): 0.125
- fractional inhibitory concentration index (FICI) (Acinetobacter baumannii [35]): 0.125
- fractional inhibitory concentration index (FICI) (Acinetobacter baumannii [36]): 0.188
- MIC (Escherichia coli [37]): 12.5 µg/mL
- MIC (Escherichia coli [38]): 3.13 µg/mL
- Activity (Klebsiella pneumoniae [39]): inactive
- MIC (Acinetobacter baumannii [40]): 0.78 µg/mL
- fractional inhibitory concentration index (FICI) (Acinetobacter baumannii [41]): 0.188
- MIC (Escherichia coli [42]): 0.013 µg/mL
